Data: ChEMBL document CHEMBL5375952, “Discovery of Novel 8-Hydroxyquinoline Derivatives with Potent In Vitro and In Vivo Antifungal Activity” (J Med Chem, 2023)
Calls of active or inactive are those of the source. The rule behind the calls is not given here.

Experiments:
Candida albicans [1] = experiment: Synergistic antifungal activity against FLC-resistant Candida albicans 646 assessed as MIC of FLC incubated for 48 hrs by broth microdilution method; format: functional
Candida albicans [2] = experiment: Synergistic antifungal activity against FLC-resistant Candida albicans 710554 assessed as fungal growth inhibition incubated for 48 hrs in presence of FLC by broth microdilution method; format: functional
Candida albicans [3] = experiment: Synergistic antifungal activity against FLC-resistant Candida albicans 8 assessed as MIC of FLC incubated for 48 hrs by broth microdilution method; format: functional
Candida albicans [4] = experiment: Synergistic antifungal activity against FLC-resistant Candida albicans 385 assessed as fractional inhibitory concentration index incubated for 48 hrs in presence of FLC by broth microdilution method; format: functional
Candida albicans [5] = experiment: Synergistic antifungal activity against FLC-resistant Candida albicans 8 assessed as fungal growth inhibition incubated for 48 hrs in presence of FLC by broth microdilution method; format: functional
[6] = Toxicity in C57BL/6 mouse infected with Candida albicans SC5314 assessed as animal survival at 2 mg/kg, ip measured after 20 days in presence of FLC relative to control; format: organism-based; details: in vivo, 480 h, time 20 day
[7] = AUC (0 to infinity) in Sprague-Dawley rat at 5 mg/kg, po by LC-MS/MS analysis; format: ADME, organism-based; set-up: dose 5 mg/kg, route po; details: in vivo
Candida albicans [8] = experiment: Synergistic inhibition of hypha formation in Candida albicans SC5314 at 4 to 16 ug/ml incubated for 3 hrs in presence of FLC by inverted phase contrast microscopy; format: functional, organism-based; details: dose 4-16 µg/ml
Candida albicans [9] = experiment: Synergistic antifungal activity against FLC-resistant Candida albicans 953 assessed as MIC of FLC incubated for 48 hrs by broth microdilution method; format: functional
Candida albicans [10] = experiment: Synergistic antifungal activity against FLC-resistant Candida albicans 605141 assessed as MIC of FLC incubated for 48 hrs by broth microdilution method; format: functional
[11] = Toxicity in C57BL/6 mouse infected with Candida albicans SC5314 assessed as animal survival at 2 mg/kg, ip measured after 20 days relative to control; format: organism-based; details: in vivo, 480 h, time 20 day
Candida albicans [12] = experiment: Synergistic antifungal activity against FLC-resistant Candida albicans 100 assessed as MIC of FLC incubated for 48 hrs by broth microdilution method; format: functional
Candida albicans [13] = experiment: Synergistic antifungal activity against FLC-resistant Candida albicans 538 assessed as fractional inhibitory concentration index incubated for 48 hrs in presence of FLC by broth microdilution method; format: functional
Candida albicans [14] = experiment: Synergistic antifungal activity against FLC-resistant Candida albicans 14 assessed as fractional inhibitory concentration index incubated for 48 hrs in presence of FLC by broth microdilution method; format: functional
Candida albicans [15] = experiment: Synergistic antifungal activity against FLC-resistant Candida albicans 953 assessed as fractional inhibitory concentration index incubated for 48 hrs in presence of FLC by broth microdilution method; format: functional
[16] = Clearance in Sprague-Dawley rat at 2 mg/kg, iv by LC-MS/MS analysis; format: ADME, organism-based; details: in vivo
[17] = Volume of distribution at steady state in Sprague-Dawley rat at 2 mg/kg, iv by LC-MS/MS analysis; format: ADME, organism-based; details: in vivo, read-out: Vdss
Candida albicans [18] = experiment: Inhibition of hypha formation in Candida albicans SC5314 at 8 to 16 ug/ml incubated for 3 hrs by inverted phase contrast microscopy; format: functional, organism-based; details: dose 8-16 µg/ml
Candida albicans [19] = experiment: Synergistic antifungal activity against FLC-resistant Candida albicans 17 assessed as fractional inhibitory concentration index incubated for 48 hrs in presence of FLC by broth microdilution method; format: functional
Candida albicans [20] = experiment: Synergistic inhibition of biofilm formation of Candida albicans SC5314 incubated for 24 hrs in presence of FLC by XTT assay; format: functional, organism-based; details: dose <= 16.0 µg/ml
Candida albicans [21] = experiment: Synergistic antifungal activity against FLC-resistant Candida albicans 5740 assessed as fractional inhibitory concentration index incubated for 48 hrs in presence of FLC by broth microdilution method; format: functional
Candida albicans [22] = experiment: Synergistic antifungal activity against FLC-resistant Candida albicans 305 assessed as MIC of FLC incubated for 48 hrs by broth microdilution method; format: functional
Candida albicans [23] = experiment: Synergistic antifungal activity against FLC-resistant Candida albicans 305 assessed as fractional inhibitory concentration index incubated for 48 hrs in presence of FLC by broth microdilution method; format: functional
Candida albicans [24] = experiment: Synergistic antifungal activity against FLC-resistant Candida albicans 646 assessed as fractional inhibitory concentration index incubated for 48 hrs in presence of FLC by broth microdilution method; format: functional
Candida albicans [25] = experiment: Synergistic antifungal activity against FLC-resistant Candida albicans 710419 assessed as fractional inhibitory concentration index incubated for 48 hrs in presence of FLC by broth microdilution method; format: functional
Candida albicans [26] = experiment: Antifungal activity against Candida albicans SC5314 infected in C57BL/6 mouse assessed as mean fungal burden at 2 mg/kg, ip measured after 46 hrs by plate count method (reference value: 6.902 log10CFU/ml); format: functional
Candida albicans [27] = experiment: Synergistic antifungal activity against FLC-resistant Candida albicans 512681 assessed as fungal growth inhibition incubated for 48 hrs in presence of FLC by broth microdilution method; format: functional
Candida albicans [28] = experiment: Synergistic antifungal activity against FLC-resistant Candida albicans 710506 assessed as MIC of FLC incubated for 48 hrs by broth microdilution method; format: functional
Candida albicans [29] = experiment: Synergistic antifungal activity against FLC-resistant Candida albicans 10 assessed as MIC of FLC incubated for 48 hrs by broth microdilution method; format: functional
Candida albicans [30] = experiment: Synergistic antifungal activity against FLC-resistant Candida albicans 395 assessed as fungal growth inhibition incubated for 48 hrs in presence of FLC by broth microdilution method; format: functional
Candida albicans [31] = experiment: Synergistic antifungal activity against FLC-resistant Candida albicans 379 assessed as fractional inhibitory concentration index incubated for 48 hrs in presence of FLC by broth microdilution method; format: functional
Candida albicans [32] = experiment: Synergistic antifungal activity against FLC-resistant Candida albicans 710554 assessed as MIC of FLC incubated for 48 hrs by broth microdilution method; format: functional
Candida albicans [33] = experiment: Synergistic antifungal activity against FLC-resistant Candida albicans 512644 assessed as fractional inhibitory concentration index incubated for 48 hrs in presence of FLC by broth microdilution method; format: functional
[34] = AUC (0 to infinity) in Sprague-Dawley rat at 2 mg/kg, iv by LC-MS/MS analysis; format: ADME, organism-based; set-up: dose 2 mg/kg, route iv; details: in vivo
Candida albicans [35] = experiment: Synergistic antifungal activity against FLC-resistant Candida albicans 710452 assessed as fractional inhibitory concentration index incubated for 48 hrs in presence of FLC by broth microdilution method; format: functional
Candida albicans [36] = experiment: Synergistic antifungal activity against FLC-resistant Candida albicans 710513 assessed as fractional inhibitory concentration index incubated for 48 hrs in presence of FLC by broth microdilution method; format: functional
Candida albicans [37] = experiment: Synergistic antifungal activity against FLC-resistant Candida albicans 100 assessed as fractional inhibitory concentration index incubated for 48 hrs in presence of FLC by broth microdilution method; format: functional
[38] = Half life in Sprague-Dawley rat at 5 mg/kg, po by LC-MS/MS analysis; format: ADME, organism-based; details: in vivo
Candida albicans [39] = experiment: Inhibition of biofilm formation of Candida albicans SC5314 incubated for 24 hrs by XTT assay; format: functional, organism-based; details: dose <= 16.0 µg/ml
Candida albicans [40] = experiment: Antifungal activity against Candida albicans SC5314 infected in C57BL/6 mouse assessed as mean fungal burden at 0.25 mg/kg, ip measured after 46 hrs by plate count method (reference value: 6.902 log10CFU/ml); format: functional

## CCN(CC)c1ccc(C(NC(=O)C(C)C)c2ccc3cccnc3c2O)cc1 (stereo not given)
Candida albicans [1]
  MIC: 1 µg/mL
Candida albicans [2]
  MIC: 0.031 µg/mL
Candida albicans [3]
  MIC: 0.031 µg/mL
Candida albicans [4]
  fractional inhibitory concentration index (FICI): 0.078
Candida albicans [5]
  MIC: 0.031 µg/mL
[6]
  Survival: 20%
[7]
  AUC(0-inf): 158 ng·h/mL
Candida albicans [8]
  inhibition: Active
Candida albicans [9]
  MIC: 0.125 µg/mL
Candida albicans [10]
  MIC: 0.125 µg/mL
[11]
  Survival: 20%
Candida albicans [12]
  MIC: 0.25 µg/mL
Candida albicans [13]
  fractional inhibitory concentration index (FICI): 0.047
Candida albicans [14]
  fractional inhibitory concentration index (FICI): 0.133
Candida albicans [15]
  fractional inhibitory concentration index (FICI): 0.032
[16]
  clearance: 30.4 mL/min/kg
[17]
  Vd: 4.75 L/kg
Candida albicans [18]
  inhibition: Active
Candida albicans [19]
  fractional inhibitory concentration index (FICI): 0.035
Candida albicans [20]
  inhibition: Dose-Dependent Effect
Candida albicans [21]
  fractional inhibitory concentration index (FICI): 0.312
Candida albicans [22]
  MIC: 1 µg/mL
Candida albicans [23]
  fractional inhibitory concentration index (FICI): 0.039
Candida albicans [24]
  fractional inhibitory concentration index (FICI): 0.133
Candida albicans [25]
  fractional inhibitory concentration index (FICI): 0.064
Candida albicans [26]
  Activity: 6.318 log10CFU/ml
Candida albicans [27]
  MIC: 0.031 µg/mL
Candida albicans [28]
  MIC: 0.5 µg/mL
Candida albicans [29]
  MIC: 0.25 µg/mL
Candida albicans [30]
  MIC: 0.016 µg/mL
Candida albicans [31]
  fractional inhibitory concentration index (FICI): 0.039
Candida albicans [32]
  MIC: 0.5 µg/mL
Candida albicans [33]
  fractional inhibitory concentration index (FICI): 0.047
[34]
  AUC(0-inf): 1110 ng·h/mL
Candida albicans [35]
  fractional inhibitory concentration index (FICI): 0.127
Candida albicans [36]
  fractional inhibitory concentration index (FICI): 0.039
Candida albicans [37]
  fractional inhibitory concentration index (FICI): 0.14
[38]
  half-life: 1 h

## OC(Cn1cncn1)(Cn1cncn1)c1ccc(F)cc1F [FLUCONAZOLE]
Candida albicans [39]
  inhibition: Dose-Dependent Effect
Candida albicans [40]
  Activity: 5.66 log10CFU/ml
